This is an account of results in PMC5156807, “Stabilized Polymer Micelles for the Development of IT-147, an Epothilone D Drug-Loaded Formulation” (Journal of Drug Delivery, 2016).

What is called LD50 is the dose expected to kill half of the subjects tested. For orientation: Cmax means the highest concentration seen after dosing. By clearance is commonly meant the rate of elimination divided by the concentration. Usually half-life stands for the time needed for the level to fall by half in the phase considered.

SMILES strings stand for the structures. Like-named read-outs stand apart in the source and are kept apart here. Where only a bound is given, the exact number is not on record here.

Data set [1] can be described thus: Stability of drug substance in pilot formulations (mass spectrometry). Type of data set: physicochemical. From the text: Epothilones B and D were selected for encapsulation using triblock copolymers. […] This was not completely surprising as stability of epothilone B both in vitro and in vivo has been addressed in the literature. Epothilone D, the alkene derivative of epothilone B (also known as desoxy-epothilone B), was selected as the preferred drug substance for encapsulation due to increased stability in aqueous environments and pH fluctuations. A small library of triblock copolymers was used to conduct pilot formulations of epothilone D drug-loaded micelles, with the ultimate goal to select IT-147, the lead for development of an epothilone D encapsulated polymer micelle formulation. Five of the polymers chosen for the library contained stabilizing blocks comprised of hydroxamic acid functionalized poly(glutamic acid), and five of the polymers contained poly(cysteine) amino acid moieties as stabilizing blocks (Figure 2, Table 1). All polymers contained a 12 kDa PEG and a mixture of hydrophobic amino acids with D and L isomers in the core block. Pilot formulations were characterized by determining formulation efficiency, epothilone D drug loading (% w/w), average particle diameter, and retention of epothilone D following dialysis above and below the critical micelle concentration (Table 1).

For data set [2] the following is noted: intraperitoneal bolus, mouse tumor models; cited from earlier work.
Data set [3] can be described thus: Dialysis stability / pH-dependent release assay. The note with it: 20 mg/mL, 3500 MWC, 10 mM phosphate buffer, 6 hours, room temperature; epothilone D retained. In kind it is physicochemical. The method, then: Retention of the epothilone drug substance within the micelle formulation and the release profile of the drug substance over time, concentration, and pH were investigated using dialysis. Formulations were reconstituted at concentrations of 20 mg/mL and 0.2 mg/mL and placed in dialysis tubing with 3500 MWC pore size, which allows for retention of the micelles within the bag and release of the free drug from the bag into the reservoir. A volume of 3 mL of reconstituted formulation was placed into dialysis bags and then placed in a 300 mL reservoir containing 10 mM phosphate buffer and stirred for 6 hours at room temperature. HPLC assay for epothilone concentration of the formulation inside the bag was done before and after dialysis to determine the percentage of epothilone retained inside the dialysis bag over 6 hours. pH-dependent release was performed using 10 mM phosphate buffer at pH 3, 4, 5, 6, 7, 7.4, and 8 in the reservoirs during dialysis.

Data set [4] in a line: Plasma pharmacokinetic screening of pilot formulations in cannulated rat model. The note with it: rat plasma epothilone D, 10 mg/kg fast bolus jugular vein catheter. In kind it is in vivo, Sprague-Dawley rats. The method, then: The lead hydroxamic acid and cysteine containing formulations were compared to free epothilone D using a cannulated rat model by administering a 10 mg/kg dose by fast bolus to the jugular vein catheter. Female, Sprague-Dawley rats surgically modified with jugular vein catheters exteriorized posteriorly were purchased from Harlan Labs. Catheters were flushed and maintained with heparinized saline to ensure patency over the study period. The catheter port was used for both test article administration and blood collection. IT-147 pharmacokinetics at 20, 30, and 40 mg/kg were compared to epothilone D free drug at 20 mg/kg in the cannulated rat model. IT-147 was reconstituted in saline, while epothilone D free drug was reconstituted in cremaphor : ethanol : saline at 1 : 1 : 4 ratio. All in vivo studies were conducted under Institutional Guidelines. The Institutional Animal Care and Use Committee (IACUC), at the University of South Florida (USF), approved all rat in vivo study protocols. Animals were maintained and evaluated under pathogen-free conditions in accordance with USF College of Medicine IACUC standards of care. Approximately 300 μL of blood was collected into K2EDTA tubes containing PMSF (final concentration 2.5 mM) at time points of 1, 5, 15, and 60 minutes after test article administration. Samples were centrifuged at 2000 RPM for 5 minutes to isolate plasma. Plasma was aliquoted into microcentrifuge tubes and frozen at −20°C until processed for HPLC/UV analysis. […]
Stability of polymer micelles to dilution is one of the most important physiochemical characteristics for a formulation to be successful in vivo. […] The top two candidates from the pilot epothilone D formulations were evaluated, along with epothilone D free drug, using a cannulated rat model for pharmacokinetics. Selection of the lead epothilone D formulation, termed IT-147, was determined from the exposure of epothilone D to the plasma compartment by calculating the area under the concentration versus time curve (AUC) and maximum concentration (C max). […]

Data set [5] can be described thus: Pilot toxicokinetic dose range-finding study in cannulated rat model. The note with it: for Dose limiting Toxicities / average weight loss: rat, 20 mg/kg; for Dose limiting Toxicities: w.l. = weight loss; for average weight loss: four days. Type of data set: in vivo, Sprague-Dawley rats. How it is done:
The lead hydroxamic acid and cysteine containing formulations were compared to free epothilone D using a cannulated rat model by administering a 10 mg/kg dose by fast bolus to the jugular vein catheter. Female, Sprague-Dawley rats surgically modified with jugular vein catheters exteriorized posteriorly were purchased from Harlan Labs. Catheters were flushed and maintained with heparinized saline to ensure patency over the study period. The catheter port was used for both test article administration and blood collection. IT-147 pharmacokinetics at 20, 30, and 40 mg/kg were compared to epothilone D free drug at 20 mg/kg in the cannulated rat model. IT-147 was reconstituted in saline, while epothilone D free drug was reconstituted in cremaphor : ethanol : saline at 1 : 1 : 4 ratio. All in vivo studies were conducted under Institutional Guidelines. The Institutional Animal Care and Use Committee (IACUC), at the University of South Florida (USF), approved all rat in vivo study protocols. Animals were maintained and evaluated under pathogen-free conditions in accordance with USF College of Medicine IACUC standards of care. Approximately 300 μL of blood was collected into K2EDTA tubes containing PMSF (final concentration 2.5 mM) at time points of 1, 5, 15, and 60 minutes after test article administration. Samples were centrifuged at 2000 RPM for 5 minutes to isolate plasma. Plasma was aliquoted into microcentrifuge tubes and frozen at −20°C until processed for HPLC/UV analysis. The following bioanalytical method is a modification of the procedure originally developed by Yuan et al.. Bioanalytical sample preparation was performed by liquid : liquid extraction. 50 μL of plasma sample was added to 600 μL of n-butyl chloride and vortexed for 10 minutes. Samples were centrifuged at 10,000 RPM for 10 minutes and the organic supernatant was aliquoted into microcentrifuge tubes. The n-butyl chloride supernatant was evaporated to dryness using a turbovap with nitrogen flow at room temperature, and 75 μL of a 40% acetonitrile in water solution was added to each tube. Samples were then vortexed for 5 minutes, aliquoted into HPLC vials, and processed using HPLC methodology as described in Section 2.3. Blank rat plasma containing PMSF was used to spike in epothilone D for standard curve preparation and processed as described for the plasma samples to determine concentration of epothilone D isolated from the samples collected from the cannulated rats. Noncompartmental analysis of the pharmacokinetic data was done using Phoenix WinNonlin version 6.3.
A pilot dose range-finding toxicokinetic study in a cannulated rat model was performed to support future full scale toxicokinetic studies of IT-147. Doses of IT-147 at 20, 30 and 40 mg/kg were compared to epothilone D free drug at 20 mg/kg (Table 3, Figure 7) followed by monitoring of animal weight change, gross signs of clinical toxicity, and limited plasma sampling for pharmacokinetic analysis (Table 4). IT-147 was reconstituted in saline while epothilone D free drug was administered in a cremaphor : ethanol : saline mixture. Test articles were given by fast bolus to the rat jugular vein, and blood was collected at time points of 1 minute, 5 minutes, 15 minutes, 1 hour, 2 hours, 4 hours, and 6 hours. […] Samples collected after the 1-hour time point were below the limit of quantitation for analysis. […] It was concluded that 20 mg/kg epothilone D free drug was above the maximum tolerated dose for these animals. […] Animals were monitored for one week following test article administration. […] Animals were monitored for four days after test article administration and were euthanized on the fourth day due to welfare concerns. […] It was concluded that 40 mg/kg epothilone D from IT-147 was above the maximum tolerated dose for these animals.

The mark [6] stands for this setting: female, Sprague-Dawley, iv, rat plasma, 20 mg/kg epothilone D equivalent, fast bolus jugular vein.

For `C/C(=C\c1csc(C)n1)[C@@H]1C[C@@H]2O[C@]2(C)CCC[C@H](C)[C@H](O)[C@@H](C)C(=O)C(C)(C)[C@@H](O)CC(=O)O1` [epothilone B], the “stability of the drug substance (epoxide ring) under formulation conditions” value in data set [1] is “unstable to all experimental formulation conditions”. In addition, in data set [2], the LD50 is listed as 0.6 mg/kg and the maximum tolerated dose is recorded as 0.3 mg/kg.
With `C/C1=C/C[C@@H](/C(C)=C/c2csc(C)n2)OC(=O)C[C@H](O)C(C)(C)C(=O)[C@H](C)[C@@H](O)[C@@H](C)CCC1` [epothilone D], the “Dialysis > CMC (% remaining)” value in data set [3] stood at 15%. In addition, the concentration at 60 min in data set [4] (female, Sprague-Dawley, intravenous, 60 minutes, read-out: Clast) was determined as 1600 ± 800 ng/mL. For the same compound, the highest concentration (Cmax) worked out at 19700 ± 4100 ng/mL in data set [4] (female, Sprague-Dawley, intravenous, at 1 minute) and 32200 ng/mL in data set [5] (setting [6]). Moreover, the “AUC(0-1 h)” value in data set [4] amounted to 5.2 h∗µg/mL. The maximum tolerated dose is on record as less than 20 mg/kg in data set [5] (cannulated rat, single fast bolus, epothilone D equivalent, listed as epothilone D free drug) and 25 mg/kg in data set [2]. Moreover, in data set [5] (setting [6]), the clearance is 40.2 mL/min/kg. For the same compound, in data set [5] (female, Sprague-Dawley, iv, terminal, rat plasma, 20 mg/kg epothilone D equivalent, fast bolus jugular vein), the half-life was 18 min. Moreover, in data set [5] (rat plasma, 20 mg/kg epothilone D equivalent, fast bolus jugular vein), the “AUC(0–6 h)” value was 8.3 h∗µg/mL. Further, the “Dose limiting Toxicities” value in data set [5] (20 mg/kg epothilone D equivalent, listed as Epo D) was >10% w.l. lethargy impaired gait orbital-bleeding; in data set [5] (20 mg/kg epothilone D equivalent, listed as Epothilone D free drug), “lethargy, impaired gait, orbital bleeding, porphyrin accumulation around the face, and disheveled fur”; in data set [5] (20 mg/kg epothilone D equivalent, listed as epothilone D free drug) it was “lethargy, gait impairment, and retro-orbital bleeding”. Besides, the average weight loss was 12% in data set [5] (listed as Epothilone D free drug) and “greater than 10%” in data set [5] (listed as epothilone D free drug).
